In one experiment the test system is P. acnes PRP-053. Briefly: Disc diffusion assay (DDA). The class given is cell-based, Propionibacterium acnes. The conditions noted are these: zone diameter, 200 μg per disc. The method, then:
(§1) Other propionibacterial strains were also tested, as described in Example 8 below. These included certain antibiotic resistant propionibacteria, such as the two P. acnes strains PRP-010 and PRP-053 which are resistant respectively to macrolides-lincosamides-streptogramins-ketolides (MLSK) and to macrolides-lincosamides-streptogramins (MLS) and tetracycline—in other words, PRP-010 is resistant to erythromycin and clindamycin, and […] to erythromycin, clindamycin and tetracycline.
(§2) The Propionibacterium spp organisms were cultured and maintained on Wilkins-Chalgren Anaerobe Medium (agar and broth) at pH 6.0; cultures were incubated anaerobically at 37° C. for 72 hours.
(§3) A sterile paper disc was impregnated with a sample of the test compound and a minimum of 30 minutes allowed for the solvents to evaporate as far as possible. The disc was then placed on an agar plate onto which the test micro-organism had been inoculated. The plate was then incubated under the conditions described above, following which it was examined visually for signs of bacterial growth. If the test compound had antimicrobial activity, a circular zone of no growth would be obtained around the disc. The diameter of this zone of “inhibition” was measured using a ProtoCOL™ automated zone sizer (Synbiosis, Cambridge, UK). In general, a greater diameter and/or area of the zone of inhibition indicates a greater antimicrobial activity in the relevant test compound, although other factors such as test compound mobility through the agar gel may also influence the result.
(§4) The area of the zone of inhibition was calculated from the measured zone diameter (D) using the formula π(D/2)^2.

The test system of the next experiment is P. acnes PRP-010. In words: Disc diffusion assay (DDA). The class given is cell-based, Propionibacterium acnes. Particulars: zone diameter, 200 μg per disc. On the procedure:
as §1, §2, §3, §4
On the technique in general: Agar diffusion results depend on both activity and mobility in agar.

The test system of the next experiment is P. acnes PRP-102. Briefly: MBC assay. The class given is cell-based, Propionibacterium acnes. The conditions noted are these: Cutibacterium acnes, PRP102; P. acnes PRP-102 (resistance Tet/MLS). On the procedure:
as §2
(§5) This assay, normally carried out after an MIC assay, determines the minimum concentration of a compound that is lethal to the micro-organism being tested.
(§6) These samples were then individually sub-cultured on non-selective agar medium, under the incubation conditions described above. Following incubation they were examined visually for bacterial growth.

For a further experiment, the system named is P. acnes PRP-008. Briefly: MBC assay. Particulars: Cutibacterium acnes, PRP008; P. acnes PRP-008 (resistance Clin). The class given is cell-based, Propionibacterium acnes. The method, then: as §2, §5, §6
For another experiment, the system named is P. acnes PRP-017. In words: MBC assay. In kind it is cell-based, Propionibacterium acnes. Particulars: Cutibacterium acnes, PRP017; P. acnes PRP-017 (resistance MLS). The method, then: as §2, §5, §6
The subject of another experiment is P. acnes PRP-023. Briefly: MBC assay. The class given is cell-based, Propionibacterium acnes. Particulars: Cutibacterium acnes, PRP023; P. acnes PRP-023 (resistance MLSK). The method, then: as §2, §5, §6
The test system of another experiment is P. acnes PRP-026. Briefly: MBC assay. In kind it is cell-based, Propionibacterium acnes. The conditions noted are these: Cutibacterium acnes, PRP026; P. acnes PRP-026 (resistance MLS). On the procedure: as §2, §5, §6
A further experiment relates to P. acnes PRP-101. Briefly: MBC assay. In kind it is cell-based, Propionibacterium acnes. The conditions noted are these: Cutibacterium acnes, PRP101; P. acnes PRP-101 (resistance Tet/MLS). On the procedure: as §2, §5, §6
The next experiment has as its system P. acnes PRP-003. In words: MBC assay. The class given is cell-based, Propionibacterium acnes. The conditions noted are these: Cutibacterium acnes, PRP003; P. acnes PRP-003 (resistance Tet). The method, then: as §2, §5, §6
A further experiment concerns P. acnes PRP-007. In words: MBC assay. Particulars: Cutibacterium acnes, PRP007; P. acnes PRP-007 (resistance Clin). The class given is cell-based, Propionibacterium acnes. On the procedure: as §2, §5, §6
A further experiment relates to P. acnes PRP-046. Briefly: MBC assay. The class given is cell-based, Propionibacterium acnes. The conditions noted are these: Cutibacterium acnes, PRP046; P. acnes PRP-046 (resistance None). On the procedure: as §2, §5, §6
The test system of a further experiment is P. acnes PRP-068. Briefly: MBC assay. In kind it is cell-based, Propionibacterium acnes. Particulars: Cutibacterium acnes, PRP068; P. acnes PRP-068 (resistance Ery). On the procedure: as §2, §5, §6
A further experiment deals with P. acnes PRP-004. In words: MBC assay. In kind it is cell-based, Propionibacterium acnes. Particulars: Cutibacterium acnes, PRP004; P. acnes PRP-004 (resistance Tet). On the procedure:
as §2, §5, §6

A further experiment deals with P. acnes PRP-002. Briefly: MBC assay. The class given is cell-based, Propionibacterium acnes. Particulars: Cutibacterium acnes, PRP002; P. acnes PRP-002 (resistance Tet/MLS). On the procedure:
as §2, §5, §6

In the next experiment the test system is P. acnes PRP-059. In words: MBC assay. In kind it is cell-based, Propionibacterium acnes. The conditions noted are these: Cutibacterium acnes, PRP059; P. acnes PRP-059 (resistance MLS). The method, then: as §2, §5, §6
Experiment [1] concerns Staphylococcus xylosus ATCC 29971. Briefly: MIC assay. In kind it is cell-based. The conditions noted are these: ATCC29971. The method, then: (§7) The staphylococci and enterococci were cultured and maintained on Mueller-Hinton Medium (agar and broth) at pH 7.2; they were incubated aerobically at 37° C. for 24 hours.
(§8) This is a standard international method for quantitatively assessing the antimicrobial activity of a compound in a liquid medium. The method used a 96-well microtitre plate, capable of holding about 200 μl of liquid per well. […] The culture media were as described above for the relevant test organisms.
(§9) The wells were inoculated with a liquid suspension of freshly grown micro-organism and incubated under the conditions described above. After incubation, the microtitre plate was examined visually (with the aid of a light box) for cell pellets in and/or opaque wells, which would indicate microbial growth. The MIC value was recorded as the lowest concentration of test compound required to inhibit microbial growth, ie, the lowest concentration for which the liquid in the well remained clear.
(§10) The assays were conducted in duplicate and included both negative (culture medium only) and positive (culture medium, diluting solvent and inoculum) controls.

A further experiment deals with S. aureus CPHL EMRSA 15. Briefly: MIC assay. In kind it is cell-based. Particulars: Staphylococcus aureus. On the procedure:
(§11) Other staphylococcal strains were also tested, as described in Example 5 below. These included certain antibiotic resistant staphylococci, such as the methicillin resistant S. aureus (MRSA) strains EMRSA-15 and EMRSA-16, both available from the Central Public Health Laboratory (CPHL), Colindale, UK. These strains are resistant not only to all beta-lactams but also to a number of other antibiotics in clinical use, making them a serious threat to human health. They are also responsible for the majority (>95%) of hospital-acquired MRSA infections in the UK.
as §7, §8, §9, §10

For the next experiment, the system named is S. aureus CPHL EMRSA 16. In words: MIC assay. In kind it is cell-based. Particulars: Staphylococcus aureus. The method, then:
as §11, §7, §8, §9, §10

This passage reports DDA, MBC and MIC results from patent US20080262097A1, “Formulations” (priority 2005, published 2008).

Converted amounts (≈) assume the structure as drawn. Where two headings read alike, the source gives them in different places.

In the case of `CC(C)(C)c1cc(O)ccc1O` [TBHQ, t-butyl hydroquinone], the DDA with P. acnes PRP-053 was 23.49 (±1.44) mm; in the experiment with P. acnes PRP-010, 18.71 (±0.18) mm. Further, the MBC (in general, the smallest concentration meeting the test's criterion for killing) came to 15.6 µg/mL (≈ 93.9 µM) in the experiment with P. acnes PRP-102; 7.8 µg/mL (≈ 46.9 µM) in the experiment on P. acnes PRP-008; 7.8 µg/mL (≈ 46.9 µM) in the experiment on P. acnes PRP-017; 7.8 µg/mL (≈ 46.9 µM) in the experiment with P. acnes PRP-023; 7.8 µg/mL (≈ 46.9 µM) in the experiment with P. acnes PRP-026; 7.8 µg/mL (≈ 46.9 µM) in the experiment with P. acnes PRP-101. In addition, the MBC in the experiment with P. acnes PRP-003, with P. acnes PRP-007, in the experiment on P. acnes PRP-046, against P. acnes PRP-068, with P. acnes PRP-004 and against P. acnes PRP-002 was 7.8 µg/mL (≈ 46.9 µM) in each case. Also, the MBC in the experiment on P. acnes PRP-059 was found to be 7.8 µg/mL (≈ 46.9 µM). Besides, the MIC (usually the lowest concentration found to suppress growth) was found to be 7.8 µg/mL (≈ 46.9 µM) in experiment [1] (Staphylococcus xylosus), 3.9 µg/mL (≈ 23.5 µM) against S. aureus CPHL EMRSA 15 and 3.9 µg/mL (≈ 23.5 µM) in the experiment on S. aureus CPHL EMRSA 16.
For `O=C(OOC(=O)c1ccccc1)c1ccccc1` [benzoyl peroxide], the DDA in the experiment on P. acnes PRP-053 was 29.72 (±0.48) mm; in the experiment on P. acnes PRP-010, 30.39 (±0.82) mm. Also, the MBC is 62.5 µg/mL (≈ 258 µM) against P. acnes PRP-102; 31.2 µg/mL (≈ 129 µM) in the experiment on P. acnes PRP-008; 62.5 µg/mL (≈ 258 µM) against P. acnes PRP-017; 62.5 µg/mL (≈ 258 µM) against P. acnes PRP-023; 31.2 µg/mL (≈ 129 µM) in the experiment on P. acnes PRP-026; 31.2 µg/mL (≈ 129 µM) against P. acnes PRP-101. The MBC in the experiment with P. acnes PRP-003 was determined as 31.2 µg/mL (≈ 129 µM); against P. acnes PRP-007, 62.5 µg/mL (≈ 258 µM); in the experiment with P. acnes PRP-046, 62.5 µg/mL (≈ 258 µM); against P. acnes PRP-068, 125 µg/mL (≈ 516 µM); against P. acnes PRP-004 it was 15.6 µg/mL (≈ 64.4 µM); against P. acnes PRP-002, 31.2 µg/mL (≈ 129 µM). Moreover, the MBC in the experiment with P. acnes PRP-059 turned out to be 125 µg/mL (≈ 516 µM). Also, the MIC in experiment [1] (Staphylococcus xylosus ATCC 29971, read-out: MIC) was determined as 250 µg/mL (≈ 1030 µM); with S. aureus CPHL EMRSA 15 it was 125 µg/mL (≈ 516 µM); in the experiment with S. aureus CPHL EMRSA 16 it was 125 µg/mL (≈ 516 µM).
